Results as given in patent US4323567A, “Arylmalonamido-1-oxadethiacephalosporins” (priority 1976, dated 1982).
Read-outs that look alike come from different tables or passages of the source.

What was measured:
Assay in all cases: Minimal inhibitory concentration, nutrient agar plate
E. coli 377 = assay type: cell-based, Escherichia coli; conditions: Escherichia coli, 377, inoculum size 10^8, pH 7.0, read-out: Minimal inhibitory concentration
Proteus mirabilis PR-4 = assay type: cell-based; conditions: inoculum size 10^8, pH 7.0, read-out: Minimal inhibitory concentration
Ps. aeruginosa 24 = assay type: cell-based, Pseudomonas aeruginosa; conditions: Pseudomonas aeruginosa, 24, inoculum size 10^8, pH 7.0, read-out: Minimal inhibitory concentration
[1] = test system: Serratia marsescens 13880; assay type: cell-based; conditions: Serratia, 13880, inoculum size 10^8, pH 7.0, read-out: Minimal inhibitory concentration
P. morganii No. 9 = assay type: cell-based, Proteus morganii; conditions: Morganella morganii, NO.9, inoculum size 10^8, pH 7.0, read-out: Minimal inhibitory concentration
Klebsiella pneumoniae = assay type: cell-based; conditions: inoculum size 10^8, pH 7.0, read-out: Minimal inhibitory concentration
E. coli 73 = assay type: cell-based, Escherichia coli; conditions: Escherichia coli, 73, inoculum size 10^8, pH 7.0, read-out: Minimal inhibitory concentration
E. coli JC-2 = assay type: cell-based; conditions: Escherichia coli, JC2, inoculum size 10^8, pH 7.0, read-out: Minimal inhibitory concentration
Escherichia coli H = assay type: cell-based; conditions: inoculum size 10^8, pH 7.0, read-out: Minimal inhibitory concentration
Klebsiella sp. 363 = assay type: cell-based; conditions: inoculum size 10^8, pH 7.0, read-out: Minimal inhibitory concentration
Ps. aeruginosa 25619 = assay type: cell-based, Pseudomonas aeruginosa; conditions: Pseudomonas aeruginosa, 25619, inoculum size 10^8, pH 7.0, read-out: Minimal inhibitory concentration
[2] = test system: Pseudomonas aeruginosa Denken; assay type: cell-based; conditions: inoculum size 10^8, pH 7.0, read-out: Minimal inhibitory concentration
P. vulgaris CN-329 = assay type: cell-based; conditions: Proteus vulgaris, CN329, inoculum size 10^8, pH 7.0, read-out: Minimal inhibitory concentration
Enterobacter cloacae 233 = assay type: cell-based; conditions: Enterobacter cloacae, 233, inoculum size 10^8, pH 7.0, read-out: Minimal inhibitory concentration
[3] = ester, in the presence of 5% horse serum, sodium salt

Structure (SMILES)	MIC (E. coli 377; as sodium salt) [µg/mL]	MIC (Proteus mirabilis PR-4; PR4, as sodium salt) [µg/mL]	MIC (Ps. aeruginosa 24; as sodium salt) [µg/mL]	MIC ([1]; as sodium salt) [µg/mL]	MIC (P. morganii No. 9; as sodium salt) [µg/mL]	MIC (Klebsiella pneumoniae; as sodium salt) [µg/mL]	MIC (E. coli 73; as sodium salt) [µg/mL]	MIC (E. coli JC-2; as sodium salt) [µg/mL]	MIC (Escherichia coli H; as sodium salt) [µg/mL]	MIC (Klebsiella sp. 363; SP.363, as sodium salt) [µg/mL]	MIC (Ps. aeruginosa 25619; as sodium salt) [µg/mL]	MIC ([2]; as sodium salt) [µg/mL]	MIC (P. vulgaris CN-329; as sodium salt) [µg/mL]	MIC (Enterobacter cloacae 233; as sodium salt) [µg/mL]	also measured
CC1=C(C(=O)O)N2C(=O)[C@@H](NC(=O)C(N)c3ccccc3)[C@H]2OC1 (stereo partly drawn) [(1), 7β-(α-phenylglycinamido)3-methyl-1-oxadethia-3-cephem-4-carboxlic acid, reference compound]	> 100	> 100	> 100	> 100	> 100	> 100	> 100	> 100	> 100	> 100	> 100	> 100	> 100	> 100	–
CC(=O)OCC1=C(C(=O)O)N2C(=O)[C@@H](NC(=O)Cc3cccs3)[C@H]2OC1 [(2), 7β-(2thienylacetamido)-1-oxadethiacephalosporanic acid, reference compound]	> 100	1.56	> 100	> 100	> 100	1.56	> 100	6.25	0.39	> 100	> 100	> 100	> 100	> 100	–
Cc1nnc(SCC2=C(C(=O)O)N3C(=O)[C@@H](NC(=O)Cn4cnnn4)[C@H]3OC2)s1 [(3), 7β-(1tetrazolyl)acetamido-3-(2-methyl-1,3,4-thiadiazol-5-yl)thiomethl-1-oxadethia-3-cephem-4-carboxylic acid, reference compound]	25	1.56	> 100	> 100	50	3.13	> 100	1.56	1.56	> 100	> 100	> 100	> 100	> 100	–
Cn1nnnc1SCC1=C(C(=O)O)N2C(=O)[C@@H](NC(=O)C(O)c3ccccc3)[C@H]2OC1 (stereo partly drawn) [(4), 7β-mandelamido3-(1-methyltetrazol-5-yl)thiomethyl-1-oxadethia-3-cephm-4-carboxylic acid, reference compound]	50	0.2	> 100	100	100	0.2	> 100	0.2	0.1	> 100	> 100	> 100	> 100	> 100	–
Cn1nnnc1SCC1=C(C(=O)O)N2C(=O)[C@@H](NC(=O)C(C(=O)O)c3ccccc3)[C@H]2OC1 (stereo partly drawn) [Example III-1, 7β-(α-phenyl-α-carboxyacetamido)-3-(1-methyltetrazol-5-yl)thiomethyl-1-oxadethia-3-cephem-4-carboxylic acid]	0.2	0.39	> 100	0.78	0.39	0.2	> 100	0.2	0.1	–	3.13	> 100	100	0.39	–
Cn1nnnc1SCC1=C(C(=O)[O-])N2C(=O)[C@@H](NC(=O)C(C(=O)Oc3ccc4c(c3)CCC4)c3ccccc3)[C@H]2OC1.[Na+] (stereo partly drawn) [Example III-2, sodium 7β-[α-(5-indanyl)oxycarbonyl-α-phenylacetamido]-3-(1-methyltetrazol-5-yl)thiomethyl-1-oxadethia-3-cephem-4-carboxylate]	–	–	–	–	–	–	–	–	–	–	–	–	–	–	MIC (E. coli 377; [3]): 0.2 µg/mL; MIC (Proteus mirabilis PR-4; PR4, ester, in the presence of 5% horse serum, sodium salt): 0.39 µg/mL; MIC (Ps. aeruginosa 24; [3]): > 100 µg/mL; MIC [1, 3]: 0.78 µg/mL; MIC (P. morganii No. 9; [3]): 0.39 µg/mL; MIC (Klebsiella pneumoniae; [3]): 0.2 µg/mL; MIC (E. coli 73; [3]): > 100 µg/mL; MIC (E. coli JC-2; [3]): 0.2 µg/mL; MIC (Escherichia coli H; [3]): 0.1 µg/mL; MIC (Klebsiella sp. 363; SP.363, ester, in the presence of 5% horse serum, sodium salt): > 100 µg/mL; MIC (Ps. aeruginosa 25619; [3]): 6.25 µg/mL; MIC [2, 3]: > 100 µg/mL; MIC (P. vulgaris CN-329; [3]): 50 µg/mL; MIC (Enterobacter cloacae 233; [3]): 0.39 µg/mL
Cn1nnnc1SCC1=C(C(=O)O)N2C(=O)[C@@H](NC(=O)C(C(=O)O)c3cccs3)[C@H]2OC1 (stereo partly drawn) [Example III-8, 7β-[α-(2-thienyl)-α-carboxyacetamido]-3-(1-methyltetrazol-5-yl)thiomethyl-1-oxadethia-3-cephem-4-carboxylic acid]	0.2	0.2	> 100	0.78	0.39	0.1	> 100	0.1	0.1	> 100	3.13	> 100	50	0.2	–
Cn1nnnc1SCC1=C(C(=O)O)N2C(=O)[C@@H](NC(=O)C(C(=O)O)c3ccsc3)[C@H]2OC1 (stereo partly drawn) [Example III-9, 7β-[α-(3-thienyl)-α-carboxyacetamido]-3-(1-methyltetrazol-5-yl)thiomethyl-1-oxadethia-3-cephem-4-carboxylic acid]	0.2	0.39	–	0.78	0.39	0.2	> 100	0.1	0.1	> 100	6.25	> 100	100	0.39	–
O=C(O)Cn1nnnc1SCC1=C(C(=O)O)N2C(=O)[C@@H](NC(=O)C(C(=O)O)c3ccccc3)[C@H]2OC1 (stereo partly drawn) [Example III-10, 7β-(α-carboxy-α-phenylacetamido)-3-(1-carboxymethyltetrazol-5-yl)thiomethyl-1-oxadethia-3-cephem-4-carboxylic acid]	0.25	0.78	> 100	50	0.78	3.13	> 100	3.13	0.78	> 100	100	> 100	> 100	12.5	–
O=C(O)Cn1nnnc1SCC1=C(C(=O)O)N2C(=O)[C@@H](NC(=O)C(C(=O)O)c3cccs3)[C@H]2OC1 (stereo partly drawn) [Example III-11, 7β-[α-(2-thienyl)-α-carboxyacetamido]-3-(1-carboxymethyltetrazol-5-yl)thiomethyl-1-oxadethia-3-cephem-4-carboxylic acid]	6.25	1.56	–	25	1.56	3.13	> 100	12.5	0.78	> 100	> 100	> 100	> 100	25	–
Cc1nnc(SCC2=C(C(=O)O)N3C(=O)[C@@H](NC(=O)C(C(=O)O)c4ccccc4)[C@H]3OC2)s1 (stereo partly drawn) [Example III-12, 7β-(α-phenyl-α-carboxyacetamido)-3-(2-methyl-1,3,4-thiadiazol-5-yl)thiomethyl-1-oxadethia-3-cephem-4-carboxylic acid]	0.78	0.39	> 100	1.56	0.39	0.78	> 100	0.39	0.2	> 100	3.13	> 100	100	1.56	–
